Data as given in PubChem BioAssay AID1918999 (Molecular Pharmacology Branch, DTP, NCI, 2023).
Where “and” joins values, the source holds several entries; their conditions need not be identical. Equal values may be shown once.

System: 556581-035-R-J1-PDC complex spheroid growth
Assay: Anticancer human tumor 556581-035-R-J1-PDC patient-derived ovarian carcinoma cell line growth inhibition [AhR]
Details: for viability, T/C: stronger effect = lower value
Text: Multicellular complex tumor spheroid response to aryl hydrocarbon receptor antagonists in combination with a variety of drugs and investigational agents in selected tumor cell lines
The current study was undertaken to assess response to aryl hydrocarbon receptor antagonists in combination with standard-of-care drugs and investigational agents in solid tumor complex spheroid models. Complex spheroids include a stromal component modeled by human endothelial cells (HUVEC) and fibroblasts modeled by human mesenchymal stem cells (MSCs). The concentration ranges selected for each drug and investigational agent were based upon clinically achievable concentrations if the clinical Cmax of the agent was known.
Compounds. The drugs and investigational agents: BAY 2416964 (NSC825713), GNF351 (NSC835774), CH-223191 (NSC835775), CPI-455 (NSC825282), aza-TdCyd (NSC777586), decitabine (NSC127716), belinostat (NSC758774), entinostat (NSC756642), pevonedistat (NSC761192), tazemetostat (NSC777109), talazoparib (NSC765396), olaparib (NSC753686), selinexor (NSC780203), nedisertib (M3814, NSC802822), bortezomib (NSC756655), venetoclax (NSC766270), doxorubicin (NSC123127), elimusertib (BAY189344, NSC800525), ceralasertib (AZD6738, NSC777638), TAK-243 (NSC785004), alisertib (NSC759677), etoposide (NSC141540), topotecan (NSC609699), eribulin (NSC707389), gemcitabine (NSC613327), carboplatin (NSC241240), cisplatin (NSC119875), and SN-38 (NSC673596) were obtained from the National Cancer Institute (NCI) Developmental Therapeutics Program Chemical Repository (32). The FDA-approved anticancer drug set is available from the Developmental Therapeutics Program at https://dtp.cancer.gov/organization/dscb/obtaining/available plates.htm. […] The stock solutions were prepared in dimethyl sulfoxide (DMSO, Sigma-Aldrich, St. Louis, MO, cat. D2650), except for the platinum compounds which were prepared in saline (Quality Biological, Gaithersburg, MD, cat. 114-055-101), at 800-fold the tested concentration and stored at -70 degrees C prior to their use. All drugs and investigational agents were tested over a range starting from a high concentration at or near the clinical Cmax and decreasing in half-log increments. If the clinical Cmax for an agent had not been determined, the highest concentration tested was 10 microM (Table 1).
Cell Culture. All cells were maintained in an incubator at 37 degrees C and 5% CO2 with 95% humidity. The PDC lines were cultured according to standard operating procedures established by the NCI PDMR (https://pdmr.cancer.gov). Briefly, all PDCs were thawed and cultured in Matrigel-coated flasks prepared with a working solution of 1X Ham's F-12 nutrient mix, without supplementation (Invitrogen, Waltham, MA, cat. 11765054), 100 U/mL penicillin-streptomycin (Invitrogen, cat. 15140122), and 2.5% Matrigel (Corning Inc., Corning, NY, cat. 354248) for the first three passages. All PDCs were cultured in complete DMEM/F-12 media containing advanced DMEM/F-12 (Invitrogen, cat. 12634028), 4.9% defined fetal bovine serum, heat inactivated (HyClone Laboratories Inc., Logan, UT, cat. SH30070.03HI), 389 ng/mL hydrocortisone (Sigma-Aldrich, cat. H4001), 9.7 ng/mL human EGF recombinant protein (Invitrogen, cat. PHG0313), 23.4 microg/mL adenine (Sigma-Aldrich, cat. A2786), 97.3 U/mL penicillin-streptomycin (Invitrogen, cat. 15140122), 1.9 mM L-glutamine (Invitrogen, cat. 25030081), and 9.7 microM Y-27632 dihydrochloride (Tocris Bioscience, Bristol, United Kingdom, cat. 1254). The PDCs were cultured in complete DMEM/F12 media without 10 microM Y-27632 dihydrochloride for at least two passages prior to the screen. The established cell lines NCI-H1341 and […] were cultured in DMEM/F-12, HEPES (Invitrogen, cat. 11330032), 5% defined fetal bovine serum (HyClone Laboratories Inc., cat. SH30070.03), ITS premix universal culture supplement [insulin (5 microg/mL), transferrin (5 microg/mL), and selenious acid (5 ng/mL)] […]
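Wherever viability, T/C is given: compound exposure lasted 7 days; 100% = DMSO vehicle control growth.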

| SMILES | IC50 (curve of compound) | viability, T/C (compound 0.0316 µM) | viability, T/C (compound 0.1 µM) | viability, T/C (compound 0.316 µM) | viability, T/C (compound 1 µM) | viability, T/C (compound 3.16 µM) | viability, T/C (compound 10 µM) | further results |
| --- | --- | --- | --- | --- | --- | --- | --- | --- |
| CC(C)CC(NC(=O)C(Cc1ccccc1)NC(=O)c1cnccn1)B(O)O (centres undefined) | 5.87 nM and 5.61 nM and 4.98 nM | – | – | – | – | – | – | viability, T/C (compound 0.000949 µM): 105% and 95.7% and 87.9%; viability, T/C (compound 0.003 µM): 101% and 97.8% and 87.1%; viability, T/C (compound 0.00949 µM): 13.2% and 10.6% and 2.65%; viability, T/C (compound 0.03 µM): 1.02% and 0.36% and 1.1%; viability, T/C (compound 0.0949 µM): 0.22% and 0.29% and 0.24%; viability, T/C (compound 0.3 µM): 0.28% and 0.29% and 0.34% |
| CC(C)c1c(-c2ccccc2)nc2c(C#N)c[nH]n2c1=O | > 10000 nM | 102% and 99.4% and 99.2% | 105% and 102% and 98.3% | 92.7% and 106% and 104% | 101% and 106% and 99% | 95.7% and 110% and 93.8% | 86.8% and 94.4% and 83.1% | – |
| CC(CO)NC(=O)c1cc(-c2ccc(Cl)cc2)nn(-c2cnn(C)c2)c1=O (centres undefined) | – | – | 98.9% [middle of 20 runs] | – | – | – | – | IC50 (compound alone, run of 05/31/2022): > 10000 nM |
| CC1(C)CCC(CN2CCN(c3ccc(C(=O)NS(=O)(=O)c4ccc(NCC5CCOCC5)c([N+](=O)[O-])c4)c(Oc4cnc5[nH]ccc5c4)c3)CC2)=C(c2ccc(Cl)cc2)C1 | > 10000 nM | 98.3% and 100% and 107% | 102% and 104% and 108% | 88.4% and 106% and 96.5% | 90.5% (2×) and 107% | 97.1% and 101% and 97.2% | 75% and 79.2% and 73.8% | – |
| CC1COCCN1c1cc(-c2ccnn2C)c2ccnc(-c3ccn[nH]3)c2n1 (centres undefined) | 670 nM and 897 nM and 827 nM | 105% and 95.4% and 98.4% | 78.3% and 80.3% and 80.1% | 58.9% (2×) and 65.4% | 45.2% and 48.2% and 48.4% | – | – | viability, T/C (compound 0.00316 µM): 97.2% and 110% and 109%; viability, T/C (compound 0.01 µM): 101% and 105% and 102% |
| CC1COCCN1c1cc(C2(S(C)(=N)=O)CC2)nc(-c2ccnc3[nH]ccc23)n1 (centres undefined) | > 10000 nM | 104% and 101% and 99.6% | 103% and 105% and 107% | 96.5% and 102% and 92.8% | 86.3% and 92.2% and 88.4% | 84.8% (2×) and 74.1% | 59.5% and 60.3% and 57.7% | – |
| CCN(c1cc(-c2ccc(CN3CCOCC3)cc2)cc(C(=O)NCc2c(C)cc(C)[nH]c2=O)c1C)C1CCOCC1 | > 3000 nM | – | – | – | – | – | – | viability, T/C (compound 0.00949 µM): 98.6% and 100% and 96.3%; viability, T/C (compound 0.03 µM): 110% and 102% and 118%; viability, T/C (compound 0.0949 µM): 97.2% and 104% and 89.5%; viability, T/C (compound 0.3 µM): 96.6% and 91% and 102%; viability, T/C (compound 0.949 µM): 96.9% and 87.3% and 106%; viability, T/C (compound 3 µM): 102% and 91.7% and 108% |
| CC[C@@]1(O)C(=O)OCc2c1cc1n(c2=O)Cc2cc3c(CN(C)C)c(O)ccc3nc2-1 | > 100 nM and 86.9 nM | 77.2% and 66.1% and 69.9% | 54.1% and 51.6% and 47% | – | – | – | – | viability, T/C (compound 0.000316 µM): 101% and 94.3% and 103%; viability, T/C (compound 0.001 µM): 103% and 90.5% and 99.5%; viability, T/C (compound 0.00316 µM): 91.3% and 91.8% and 95.9%; viability, T/C (compound 0.01 µM): 87.9% and 84.7% and 81.2% |
| CCc1c2c(nc3ccc(O)cc13)-c1cc3c(c(=O)n1C2)COC(=O)[C@]3(O)CC | 13.6 nM and 21.3 nM and 13.7 nM | – | – | – | – | – | – | viability, T/C (compound 0.000949 µM): 89.1% and 96% and 90.5%; viability, T/C (compound 0.003 µM): 75% and 95% and 73.6%; viability, T/C (compound 0.00949 µM): 54.5% and 61% and 53.9%; viability, T/C (compound 0.03 µM): 39.9% and 46% and 40.5%; viability, T/C (compound 0.0949 µM): 17.3% and 25.3% and 22.7%; viability, T/C (compound 0.3 µM): 10.3% and 15.8% and 10.7% |
| COc1cc(C2c3cc4c(cc3C(OC3OC5COC(C)OC5C(O)C3O)C3COC(=O)C23)OCO4)cc(OC)c1O (centres undefined) | 7210 nM and 8060 nM and 9560 nM | 104% and 107% and 99.2% | 103% (2×) and 100% | 84.9% and 82.3% and 74.7% | 78.2% and 84.1% and 76.3% | 62.1% and 66.4% and 67.5% | 45.1% and 44.2% and 47.1% | – |
| COc1cc(Nc2ncc3c(n2)-c2ccc(Cl)cc2C(c2c(F)cccc2OC)=NC3)ccc1C(=O)O | > 10000 nM | 81.1% and 79.8% and 91.3% | 75% and 75.9% and 76% | 68.9% and 62.2% and 64.4% | 79.5% and 64.8% and 63% | 62.2% and 61.8% and 58.2% | 54% and 52% and 52.1% | – |
| COc1ccc([C@@H](O)c2cc(-c3ncnc4cc(N5CCOCC5)ccc34)c(F)cc2Cl)nn1 | 6680 nM and 4700 nM and 3460 nM | 96.5% and 101% and 108% | 106% and 98.1% and 104% | 88.7% and 93.8% and 94.7% | 76.4% and 70% and 71.3% | 58.4% and 59.2% and 52.1% | 45.5% and 37.5% and 38.9% | – |
